Tests used:
[1] = target: T1, Dihydroorotate dehydrogenase (Plasmodium falciparum, UniProt Q54A96); assay: Binding affinity to Plasmodium falciparum DHODH; conditions: for Ki: read-out: Ki app
T1 sequence (Q54A96 whole entry): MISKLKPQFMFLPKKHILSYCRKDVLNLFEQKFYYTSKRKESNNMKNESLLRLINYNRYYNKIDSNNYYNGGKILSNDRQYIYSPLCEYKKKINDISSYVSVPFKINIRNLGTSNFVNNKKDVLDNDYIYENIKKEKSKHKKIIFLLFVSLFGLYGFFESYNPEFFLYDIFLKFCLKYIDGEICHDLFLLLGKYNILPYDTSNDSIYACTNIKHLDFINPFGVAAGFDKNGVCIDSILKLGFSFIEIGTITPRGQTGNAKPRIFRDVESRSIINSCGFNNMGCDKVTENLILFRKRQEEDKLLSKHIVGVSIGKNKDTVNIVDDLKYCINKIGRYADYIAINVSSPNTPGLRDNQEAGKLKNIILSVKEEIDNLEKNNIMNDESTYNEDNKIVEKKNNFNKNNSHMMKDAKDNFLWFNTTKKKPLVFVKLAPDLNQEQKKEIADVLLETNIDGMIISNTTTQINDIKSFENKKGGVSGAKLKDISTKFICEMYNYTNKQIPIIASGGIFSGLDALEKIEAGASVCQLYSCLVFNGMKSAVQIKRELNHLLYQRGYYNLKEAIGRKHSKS

[2] = target: Dihydroorotate dehydrogenase (quinone), mitochondrial (Homo sapiens, UniProt Q02127); assay: Binding affinity to human DHODH
Sequence of Dihydroorotate dehydrogenase (quinone), mitochondrial (Q02127 whole entry): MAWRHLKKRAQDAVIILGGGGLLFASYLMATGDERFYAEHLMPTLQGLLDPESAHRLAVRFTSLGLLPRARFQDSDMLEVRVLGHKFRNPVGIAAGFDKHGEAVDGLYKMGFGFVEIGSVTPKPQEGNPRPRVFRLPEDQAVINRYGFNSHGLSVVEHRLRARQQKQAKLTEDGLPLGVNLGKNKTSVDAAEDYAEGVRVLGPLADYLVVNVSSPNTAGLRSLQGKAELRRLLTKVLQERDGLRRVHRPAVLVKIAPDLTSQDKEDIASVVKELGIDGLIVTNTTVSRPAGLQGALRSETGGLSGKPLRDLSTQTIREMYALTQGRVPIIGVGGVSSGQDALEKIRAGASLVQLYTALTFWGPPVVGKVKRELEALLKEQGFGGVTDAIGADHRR

IC50 [1] [µM] | Ki [1] [µM] | IC50 [2] [µM] | Ki [2] [µM] | SMILES
42.6 | 4.9 | > 200 |  | CN(C(=O)c1ccc(-c2ccccc2)cc1)c1ccccc1C(=O)O
143 | 16.4 | 8.4 | 1.1 | O=C(Nc1ccccc1C(=O)O)c1ccc2cc(Br)ccc2c1
> 200 |  | > 200 |  | CN(C(=O)c1ccc2ccccc2c1)c1ccccc1C(=O)O
> 200 |  | 13.8 | 1.8 | O=C(Nc1ccccc1C(=O)O)c1ccc2ccccc2c1
154 | 17.7 | 5 | 0.7 | O=C(Nc1ccccc1C(=O)O)c1ccc(-c2ccccc2)cc1
93.4 | 10.8 | > 200 |  | CN(C(=O)c1ccc2cc(Br)ccc2c1)c1ccccc1C(=O)O

Source: ChEMBL document CHEMBL1148537, “The first de novo designed inhibitors of Plasmodium falciparum dihydroorotate dehydrogenase” (Bioorg Med Chem Lett, 2006)
